US9855256B2, “Cyclooxygenase inhibitor and calcium channel antagonist compositions and methods for use in urological procedures” (Omeros Corporation, priority 2005, dated 2018)

Tests used:
PGE2 = details: 10 μM perfusion 60 min then saline 30 min; bladders harvested at 90 min
[1] = test system: Isolated bladder smooth muscle strips; test: Bladder strip contractility (bradykinin-induced contraction), Examples I and II; assay type: cell-based, rat
[2] = test system: overactive bladder function; test: Acetic-acid overactive bladder model, intravesical local delivery, cystometry, Example V; details: 0.2% acetic acid
Experimental: In this model, acute inflammation of the bladder is produced by using 0.2% acetic acid in saline as the bladder perfusion fluid and cystometry under anesthesia is performed after a recovery period from the surgical procedure.
The animals were anesthesized and bladder catheters were surgically implanted to allow irrigation of the test agents. The following cystometry parameters were monitored: intercontraction interval (ICI), trigger pressure (TP), micturition pressure (MP) and micturition volume (MV) using a Med Associates Cystometry Station and software program. […] Following the saline period, the rat bladder was infused with test agent in saline containing 0.2% acetic acid for 20 min followed by the collection of 7 representative ICI intervals for analysis.
Five to seven animals were normally tested in each group. Acidified saline served as the control. All infusion solutions were prepared fresh on the day of the experiment before use.

urinary bladder = test: In vivo rat cystometry model, 0.2% acetic acid infusion, intravenous drug; details: 10 mg/kg i.v.
Experimental: The rats were anesthetized with urethane at 1.2 g/kg i.p. in 5 ml/kg. A polyethylene catheter (PE50) was implanted into the bladder for saline or acetic acid infusion through a 3-way stopcock. A pressure transducer was connected for measurements of intravesical pressure. Warm (37° C.) saline was infused into the bladder at a constant rate of […] (1 ml/hour) until cystometry became stable (no less than 60 minutes). Thereafter, 0.2% acetic acid was infused into the urinary bladder. Aspirin (10 mg/kg i.v.) and vehicle were administered intravenously via a PE-10 catheter in the femoral vein at 5 minutes after infusion of acetic acid was started and at the end of first micturition cycle. Dunnett's test was applied for comparison between the time before and after test substance or vehicle treatment. To ascertain differences between the test substance and the vehicle control group, an unpaired Student's t test was used. Differences are considered significant at […].

Structure (SMILES): CC(C(=O)O)c1cccc(C(=O)c2ccccc2)c1 (stereo not drawn) [Ketoprofen, 3-benzoyl-α-methylbenzeneacetic acid]
- bladder tissue PGE2 levels (PGE2): 83±22 pg/mg protein
- effect on maximal tension ([1]; ketoprofen 0.25-10 μM): no apparent effect

Structure (SMILES): COC(=O)C1=C(C)NC(C)=C(C(=O)OC)C1c1ccccc1[N+](=O)[O-] [Nifedipine, 1,4-dihydro-2,6-dimethyl-4-(2-nitrophenyl)-3,5-pyridinedicarboxylic acid dimethyl ester]
- concentration of maximal effects on shortening of the ICI ([2]; in irrigation buffer, female rats): ~1 µM
- ICI plateau at higher concentrations, of baseline ([2]; nifedipine above 1 μM): approximately 75%
- type of antagonism upon bradykinin-induced contractile responses ([1]; single agents, 10 min incubation): noncompetitive

Structure (SMILES): CC(=O)Oc1ccccc1C(=O)O [aspirin]
- bladder capacity (urinary bladder): parallel changes
- effect on acetic acid induced reduction in the intercontraction interval (ICI) (urinary bladder): gradual time-dependent inhibition
- micturition pressure (urinary bladder): not affected
- threshold pressure (urinary bladder): not affected
